The source of these data is patent US20220213099A1, “PRODRUG COMPOUNDS” (BRISTOL-MYERS SQUIBB COMPANY, priority 2019, published 2022).

In brackets after ≈: the same amount, converted by molar mass. Structures can show the parent of a compound that is named as a salt. Where two headings read alike, the source gives them in different places.

Data set [1] is described as follows: Solubility evaluation in aqueous buffer. The data set is classed as physicochemical. To be noted: thermodynamic from solid, about 24 hours equilibration. As for the experimental part: The solid powder of an individual prodrug was equilibrated in aqueous buffers of pH 1, 4 and 6.5 at 25° C. for about 24 hours. After equilibration, the excess solid was separated by filtration using 0.45 μm membrane filter and the filtrate was collected in suitable glass vial. The filtrate was diluted appropriately using respective buffers/diluent and analyzed by a reversed phase LC method with UV detection.

Data set [2] in a line: Stability evaluation in aqueous buffer. The data set is classed as physicochemical. To be noted: aqueous buffer, 37° C., about 50 μg/mL, about 15% v/v acetonitrile. As for the experimental part:
The stability study of an individual prodrug was conducted with about 50 μg/mL solutions in aqueous buffers of pH 1 (0.1 M HCl), 4 (acetate buffer) and 6.5 (phosphate buffer) at 37° C. for 24 hours. About 15% v/v acetonitrile was used in these pH buffers as a co-solvent to obtain clear solutions of prodrugs. The sample analysis was carried out using a generic reversed phase liquid chromatographic (LC) method with UV detection. The area percent (AP) loss of the prodrug peak was quantified as a function of time. The appearance of parent peak was identified from the chromatographic retention time. The half-life (t1/2, h) of the prodrug was calculated by using a pseudo-first order equation from a AP loss vs time plot.

Setting [3] is: aqueous buffer, 25 °C, pH 1, simulated gastric fluid, aqueous buffer pH 1, 25° C., read-out: Solubility (mg/mL) at 25° C. pH 1.
Setting [4] is: aqueous buffer, 25 °C, pH 4, aqueous buffer, aqueous buffer pH 4, 25° C., read-out: Solubility (mg/mL) at 25° C. pH 4.
[5] abbreviates: aqueous buffer, 25 °C, pH 6.5, aqueous buffer, aqueous buffer pH 6.5, 25° C., read-out: Solubility (mg/mL) at 25° C. pH 6.5.
[6] abbreviates: pH 1, pH 1 (0.1 M HCl), read-out: Stability (t1/2, h) at 37° C. pH 1 (converted).
[7] abbreviates: pH 4, pH 4 (acetate buffer), read-out: Stability (t1/2, h) at 37° C. pH 4 (converted).
Where [8] appears, read: pH 6.5, pH 6.5 (phosphate buffer), read-out: Stability (t1/2, h) at 37° C. pH 6.5 (converted).

Turning to `Cc1c(-c2c(C(C)C)c3cc(C4CCN(CC(N)=O)CC4)ccc3n2C(=O)OC[C@@H]2CCCN2)cn2ncnc2c1C` [Example 3, (S)-Pyrrolidin-2-ylmethyl 5-(1-(2-amino-2-oxoethyl)piperidin-4-yl)-2-(7,8-dimethyl-[1,2,4]triazolo[1,5-a]pyridin-6-yl)-3-isopropyl-1H-indole-1-carboxylate], the figures for the solubility in data set [1] (setting [3]), in data set [1] (setting [4]) and in data set [1] (setting [5]) were more than 2.43 mg/mL, more than 2.68 mg/mL and more than 2.44 mg/mL, respectively. The half-life is more than 500 h in data set [2] (setting [6]), more than 500 h in data set [2] (setting [7]) and 99 h in data set [2] (setting [8]).

Regarding `Cc1c(-c2c(C(C)C)c3cc(C4CCN(CC(N)=O)CC4)ccc3n2C(=O)OC[C@@H]2CCCN2C(=O)OCOP(=O)(O)O)cn2ncnc2c1C` [Example 4, (S)-(1-(((Phosphonooxy)methoxy)carbonyl)pyrrolidin-2-yl)methyl 5-(1-(2-amino-2-oxoethyl)piperidin-4-yl)-2-(7,8-dimethyl-[1,2,4]triazolo[1,5-a]pyridin-6-yl)-3-isopropyl-1H-indole-1-carboxylate], the solubility was more than 1.64 mg/mL in data set [1] (setting [3]), 0.91 mg/mL (≈ 1250 µM) in data set [1] (setting [4]) and 0.66 mg/mL (≈ 909 µM) in data set [1] (setting [5]). In addition, the half-life in data set [2] (setting [6]) is 231 h; in data set [2] (setting [7]) it was 257 h; in data set [2] (setting [8]) it was 231 h.

For the compound `CNCC(=O)n1c(-c2cn3ncnc3c(C)c2C)c(C(C)C)c2cc(C3CCN(CC(N)=O)CC3)ccc21` [Example 5, 2-(4-(2-(7,8-Dimethyl-[1,2,4]triazolo[1,5-a]pyridin-6-yl)-3-isopropyl-1-(methylglycyl)-1H-indol-5-yl)piperidin-1-yl)acetamide ditrifluoroacetate], the solubility in data set [1] (setting [3]) is more than 2.84 mg/mL; in data set [1] (setting [4]), more than 2.15 mg/mL; in data set [1] (setting [5]), 1.19 mg/mL (≈ 2310 µM). Also, the half-life in data set [2] (setting [6]) was more than 500 h; in data set [2] (setting [7]) it was 233 h; in data set [2] (setting [8]), 4.5 h.

Regarding `Cc1c(-c2c(C(C)C)c3cc(C4CCN(CC(N)=O)CC4)ccc3n2C(=O)CCCOP(=O)(O)O)cn2ncnc2c1C` [Example 10, 4-(5-(1-(2-Amino-2-oxoethyl)piperidin-4-yl)-2-(7,8-dimethyl-[1,2,4]triazolo[1,5-a]pyridin-6-yl)-3-isopropyl-1H-indol-1-yl)-4-oxobutyl dihydrogen phosphate], the solubility is 0.43 mg/mL in data set [1] (setting [3]), 0.1 mg/mL in data set [1] (setting [4]) and 0.12 mg/mL in data set [1] (setting [5]). Besides, the half-life in data set [2] (setting [6]) was 347 h; in data set [2] (setting [7]), more than 500 h; in data set [2] (setting [8]) it was more than 500 h.

Take `Cc1c(-c2c(C(C)C)c3cc(C4CCN(CC(N)=O)CC4)ccc3n2SC[C@H](N)C(=O)O)cn2ncnc2c1C` [Example 11, S-(5-(1-(2-Amino-2-oxoethyl)piperidin-4-yl)-2-(7,8-dimethyl-[1,2,4]triazolo[1,5-a]pyridin-6-yl)-3-isopropyl-1H-indol-1-yl)-L-cysteine]: the values for the solubility in data set [1] (setting [3]), in data set [1] (setting [4]) and in data set [1] (setting [5]) were more than 1.03 mg/mL, 0.007 mg/mL (≈ 12.4 µM) and more than 1.02 mg/mL, respectively. For the same compound, the half-life in data set [2] (setting [6]) is more than 500 h; in data set [2] (setting [7]), more than 500 h; in data set [2] (setting [8]), 154 h.

As for `CNCC(=O)OCc1cccnc1N(C)C(=O)OC(C)[N+]1(CC(N)=O)CCC(c2ccc3[nH]c(-c4cn5ncnc5c(C)c4C)c(C(C)C)c3c2)CC1` (stereo not shown) [Example 14, 1-(2-Amino-2-oxoethyl)-4-(2-(7,8-dimethyl-[1,2,4]triazolo[1,5-a]pyridin-6-yl)-3-isopropyl-1H-indol-5-yl)-1-(1-((methyl(3-(((methylglycyl)oxy)methyl)pyridin-2-yl)carbamoyl)oxy)ethyl)piperidin-1-ium ditrifluoroacetate], the solubility is more than 1.51 mg/mL in data set [1] (setting [3]) and more than 0.98 mg/mL in data set [1] (setting [4]). The half-life in data set [2] (setting [6]) is 179 h; in data set [2] (setting [7]), 85 h; in data set [2] (setting [8]) it was 1.6 h.

On to `Cc1c(-c2c(C(C)C)c3cc(C4CCN(CC(N)=O)CC4)ccc3n2C(=O)OCOC(=O)C2(N)CC2)cn2ncnc2c1C` [Example 15, ((1-Aminocyclopropane-1-carbonyl)oxy)methyl 5-(1-(2-amino-2-oxoethyl)piperidin-4-yl)-2-(7,8-dimethyl-[1,2,4]triazolo[1,5-a]pyridin-6-yl)-3-isopropyl-1H-indole-1-carboxylate trifluoroacetate], for which the solubility in data set [1] (setting [3]) is more than 0.94 mg/mL; in data set [1] (setting [4]) it was more than 0.9 mg/mL; in data set [1] (setting [5]), 0.8 mg/mL. The results for the half-life in data set [2] (setting [6]), in data set [2] (setting [7]) and in data set [2] (setting [8]) were 347 h, 139 h and 39 h, respectively.

As to `Cc1c(-c2c(C(C)C)c3cc(C4CCN(CC(N)=O)CC4)ccc3n2C(=O)CN(C)C(=O)OCOP(=O)(O)O)cn2ncnc2c1C` [Example 19, (Phosphonooxy)methyl (2-(5-(1-(2-amino-2-oxoethyl)piperidin-4-yl)-2-(7,8-dimethyl-[1,2,4]triazolo[1,5-a]pyridin-6-yl)-3-isopropyl-1H-indol-1-yl)-2-oxoethyl)(methyl) carbamate], the solubility is more than 1.09 mg/mL in data set [1] (setting [3]), 0.7 mg/mL (≈ 1050 µM) in data set [1] (setting [4]) and more than 1.01 mg/mL in data set [1] (setting [5]). Besides, the half-life was 157 h in data set [2] (setting [6]), 207 h in data set [2] (setting [7]) and 65 h in data set [2] (setting [8]).

For the compound `COc1cc(C(=O)OCOC(=O)n2c(-c3cn4ncnc4c(C)c3C)c(C(C)C)c3cc(C4CCN(CC(N)=O)CC4)ccc32)ccc1OP(=O)(O)O` [Example 22, ((3-Methoxy-4-(phosphonooxy)benzoyl)oxy)methyl 5-(1-(2-amino-2-oxoethyl)piperidin-4-yl)-2-(7,8-dimethyl-[1,2,4]triazolo[1,5-a]pyridin-6-yl)-3-isopropyl-1H-indole-1-carboxylate], the solubility was more than 1.02 mg/mL in data set [1] (simulated gastric fluid, aqueous buffer pH 1, 25° C., read-out: Solubility (mg/mL) at 25° C. pH 1); 0.02 mg/mL (≈ 26.7 µM) in data set [1] (aqueous buffer pH 4, 25° C., read-out: Solubility (mg/mL) at 25° C. pH 4); 0.02 mg/mL (≈ 26.7 µM) in data set [1] (aqueous buffer pH 6.5, 25° C., read-out: Solubility (mg/mL) at 25° C. pH 6.5). Also, the half-life was 400 h in data set [2] (pH 1 (0.1 M HCl), read-out: Stability (t1/2, h) at 37° C. pH 1 (converted)); more than 500 h in data set [2] (pH 4 (acetate buffer), read-out: Stability (t1/2, h) at 37° C. pH 4 (converted)); more than 500 h in data set [2] (pH 6.5 (phosphate buffer), read-out: Stability (t1/2, h) at 37° C. pH 6.5 (converted)).

Take `CNCCN(C)C(=O)OC[N+]1(CC(N)=O)CCC(c2ccc3[nH]c(-c4cn5ncnc5c(C)c4C)c(C(C)C)c3c2)CC1` (stereo not shown) [Example 23, 1-(2-Amino-2-oxoethyl)-4-(2-(7,8-dimethyl-[1,2,4]triazolo[1,5-a]pyridin-6-yl)-3-isopropyl-1H-indol-5-yl)-1-(((methyl(2-(methylamino)ethyl)carbamoyl)oxy)methyl) piperidin-1-ium trifluoroacetate]: the solubility in data set [1] (setting [3]) was more than 0.82 mg/mL; in data set [1] (setting [4]), more than 0.85 mg/mL. Also, the half-life in data set [2] (setting [6]) is more than 500 h; in data set [2] (setting [7]), 9.6 h; in data set [2] (setting [8]), 0.1 h.

`CCOC(=O)n1c(-c2cn3ncnc3c(C)c2C)c(C(C)C)c2cc(C3CCN(CC(N)=O)CC3)ccc21` [Example 24, Ethyl 5-(1-(2-amino-2-oxoethyl)piperidin-4-yl)-2-(7,8-dimethyl-[1,2,4]triazolo[1,5-a]pyridin-6-yl)-3-isopropyl-1H-indole-1-carboxylate]: the results for the solubility in data set [1] (setting [3]), in data set [1] (setting [4]) and in data set [1] (setting [5]) were more than 1.39 mg/mL, more than 2.93 mg/mL and 0.1 mg/mL (≈ 194 µM), respectively. For the same compound, the half-life in data set [2] (setting [6]), in data set [2] (setting [7]) and in data set [2] (setting [8]) was more than 500 h in each case.

As for `Cc1c(-c2c(C(C)C)c3cc(C4CCN(CC(N)=O)CC4)ccc3n2CO)cn2ncnc2c1C` [Example 25, 2-(4-(2-(7,8-Dimethyl-[1,2,4]triazolo[1,5-a]pyridin-6-yl)-1-(hydroxymethyl)-3-isopropyl-1H-indol-5-yl)piperidin-1-yl)acetamide], the figures for the solubility in data set [1] (setting [3]), in data set [1] (setting [4]) and in data set [1] (setting [5]) were more than 1.41 mg/mL, 1.28 mg/mL (≈ 2700 µM) and 0.01 mg/mL (≈ 21.1 µM), respectively. Further, the half-life is 179 h in data set [2] (setting [6]), more than 500 h in data set [2] (setting [7]) and more than 500 h in data set [2] (setting [8]).
